# Source: patent US10722584B2, “Increasing the bioavailability of flavan-3-ols by polyphenols” (NESTEC S.A., priority 2012, dated 2020)
# Set-up: species or system human
# Settings: in vivo
# Description: Method: 12 healthy male (20-50 yrs) were enrolled in a randomized and double blind crossover design of four treatments with a minimum of 1 week wash-out period between each treatment was applied.
# In the present invention, only 2 treatments are object of investigation: green tea extract (control) and green tea extract+hesperitin 7-glucoside (intervention).
# Each treatment was formulated to contain 1 g equivalent of Choladi green tea extract. Subjects in the intervention group received a mixture of 1 g of green tea extract and 100 mg of hesperitin-7-glucoside.
# After ingestion, plasma was collected over 24 h. Plasma EGCG analyses were performed by HPLC coupled with an electrochemical detection.
# EGCG bioavailability was calculated from plasma kinetics by measuring the Area Under its concentration-time Curve (AUC).
smiles,measurement,value
COc1ccc([C@@H]2CC(=O)c3c(O)cc(O[C@@H]4O[C@H](CO)[C@@H](O)[C@H](O)[C@H]4O)cc3O2)cc1O [hesperitin 7-glucoside],absorption of EGCG when flavan-3-ols are co-administered,significantly enhanced
